# Measured values from article PMC9403976, “Elucidating the path to Plasmodium prolyl-tRNA synthetase inhibitors that overcome halofuginone resistance” (Nature Communications, 2022).
# “And” between values parts separate entries of the source, which are not always exact repeats. Identical values can stand only once. Like-named read-outs stand apart in the source and are kept apart here.
# How the values were obtained:
# HsProRS = HsProRS (Homo sapiens, UniProt P07814); assay: TR-FRET ligand displacement assay with tracer MAT379 (CoraFluor-1-Halo and anti-His6 antibody formats); type: binding; design: made in house; host or cells: E. coli SoluBL-21; settings: for TR-FRET dose-response, normalized signal (SI Fig 11): individual replicates; for TR-FRET dose-response, normalized signal (SI Fig 11) / normalized TR-FRET signal (dose-response replicates): listed as NCP26 (3); for normalized TR-FRET signal (dose-response replicates): SI Fig 15
# Sequence of HsProRS (P07814 996-1512): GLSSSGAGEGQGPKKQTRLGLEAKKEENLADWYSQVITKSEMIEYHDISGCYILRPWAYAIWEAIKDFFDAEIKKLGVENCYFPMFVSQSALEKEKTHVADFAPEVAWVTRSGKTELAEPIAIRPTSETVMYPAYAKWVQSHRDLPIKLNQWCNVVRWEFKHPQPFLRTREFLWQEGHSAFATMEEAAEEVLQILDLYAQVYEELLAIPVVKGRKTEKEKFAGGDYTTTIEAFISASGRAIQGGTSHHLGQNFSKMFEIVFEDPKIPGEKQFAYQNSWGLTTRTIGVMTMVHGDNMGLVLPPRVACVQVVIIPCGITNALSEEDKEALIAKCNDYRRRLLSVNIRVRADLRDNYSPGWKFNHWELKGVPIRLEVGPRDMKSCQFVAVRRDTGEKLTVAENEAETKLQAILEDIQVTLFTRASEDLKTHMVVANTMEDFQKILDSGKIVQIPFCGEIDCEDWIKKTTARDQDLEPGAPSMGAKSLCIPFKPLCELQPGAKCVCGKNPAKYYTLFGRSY
# [1] = tested on: P. falciparum Dd2-2D4 NCP26 selections S1-3; assay: ABS growth assay on bulk populations and clones from NCP26 resistance selections S1-3; type: cell-based, Plasmodium falciparum; settings: for EC50: Plasmodium falciparum
# PfcProRS = target: T1, PfcProRS (Plasmodium falciparum, UniProt Q8I5R7); type: binding; settings: for dose-response signal (normalized), SI Fig 8: single replicates, listed as NCP26 (3)
# T1 construct: made in house; host or cells: E. coli SoluBL-21
# T1 sequence (Q8I5R7 249-746): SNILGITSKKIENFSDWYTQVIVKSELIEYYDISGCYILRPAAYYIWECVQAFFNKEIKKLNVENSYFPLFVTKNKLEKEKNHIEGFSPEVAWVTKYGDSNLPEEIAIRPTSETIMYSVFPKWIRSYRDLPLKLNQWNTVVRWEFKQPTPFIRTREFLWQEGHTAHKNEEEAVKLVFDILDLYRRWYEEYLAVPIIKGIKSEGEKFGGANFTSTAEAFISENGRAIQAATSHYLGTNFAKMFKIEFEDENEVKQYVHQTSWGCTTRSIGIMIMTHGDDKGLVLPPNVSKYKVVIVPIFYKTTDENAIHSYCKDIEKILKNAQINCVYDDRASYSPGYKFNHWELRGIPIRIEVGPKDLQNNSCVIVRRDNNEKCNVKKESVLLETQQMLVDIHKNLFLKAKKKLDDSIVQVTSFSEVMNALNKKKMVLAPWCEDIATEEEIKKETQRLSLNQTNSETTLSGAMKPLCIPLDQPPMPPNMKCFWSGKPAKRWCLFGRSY
structure (smiles),measurement,setting,value
O=C(NC1Cc2ccccc2C1)c1nccnc1NC(=O)N1CCCCC1 [NCP26],normalized TR-FRET signal (Fig 2j),HsProRS; Log[inhibitor] (M) -8.916,9.01E-01 and 9.63E-01 and 9.82E-01
same,"TR-FRET dose-response, normalized signal (SI Fig 11)",HsProRS; Log[inhibitor] (M) -9.000,9.79E-01 and 9.82E-01 and 1.02E+00
same,normalized TR-FRET signal (Fig 2j),HsProRS; Log[inhibitor] (M) -9.217,9.20E-01 and 1.06E+00
same,"TR-FRET dose-response, normalized signal (SI Fig 11)",HsProRS; Log[inhibitor] (M) -9.301,1.04E+00 and 1.00E+00 and 9.65E-01
same,normalized TR-FRET signal (dose-response replicates),HsProRS; Log[inhibitor] (M) -4.99976,2.27E-01 and 3.58E-01 and 2.56E-01
same,normalized TR-FRET signal (dose-response replicates),HsProRS; Log[inhibitor] (M) -5.3009,5.51E-01 and 1.03E-01 and 3.27E-01
same,normalized TR-FRET signal (dose-response replicates),HsProRS; Log[inhibitor] (M) -5.60199,6.05E-01 and 4.05E-01 and 4.39E-01
same,normalized TR-FRET signal (dose-response replicates),HsProRS; Log[inhibitor] (M) -5.90248,4.42E-01 and 6.91E-01 and 6.09E-01
same,normalized TR-FRET signal (dose-response replicates),HsProRS; Log[inhibitor] (M) -6.20323,4.30E-01 and 8.03E-01 and 7.35E-01
same,normalized TR-FRET signal (dose-response replicates),HsProRS; Log[inhibitor] (M) -6.51347,8.28E-01 and 6.81E-01 and 6.14E-01
same,normalized TR-FRET signal (dose-response replicates),HsProRS; Log[inhibitor] (M) -6.79595,1.04E+00 and 6.14E-01 and 1.23E+00
same,normalized TR-FRET signal (dose-response replicates),HsProRS; Log[inhibitor] (M) -7.10794,8.29E-01 and 9.88E-01 and 1.04E+00
same,normalized TR-FRET signal (dose-response replicates),HsProRS; Log[inhibitor] (M) -7.40526,1.19E+00 and 8.56E-01 and 7.59E-01
same,normalized TR-FRET signal (dose-response replicates),HsProRS; Log[inhibitor] (M) -7.7137,9.63E-01 and 9.49E-01 and 1.37E+00
same,normalized TR-FRET signal (dose-response replicates),HsProRS; Log[inhibitor] (M) -8,8.45E-01 and 9.90E-01 and 8.83E-01
same,normalized TR-FRET signal (dose-response replicates),HsProRS; Log[inhibitor] (M) -8.331,9.93E-01 and 9.01E-01 and 8.86E-01
same,normalized TR-FRET signal (dose-response replicates),HsProRS; Log[inhibitor] (M) -8.57403,9.84E-01 and 9.89E-01 and 1.13E+00
same,normalized TR-FRET signal (dose-response replicates),HsProRS; Log[inhibitor] (M) -8.87506,9.25E-01 and 9.80E-01 and 7.66E-01
same,normalized TR-FRET signal (dose-response replicates),HsProRS; Log[inhibitor] (M) -9.17609,7.05E-01 and 1.05E+00 and 1.13E+00
same,EC50,"[1]; DD2, cell line S1 - Clone A8, read-out: EC50 [nM] mean",68.1 nM
same,EC50,"[1]; DD2, cell line S1 - bulk population, read-out: EC50 [nM] mean",102 nM
same,EC50,"[1]; DD2, cell line S2 - Clone A3, read-out: EC50 [nM] mean",1240 nM
same,EC50,"[1]; DD2, cell line S2 - Clone B9, read-out: EC50 [nM] mean",2930 nM
same,EC50,"[1]; DD2, cell line S2 - Clone C5, read-out: EC50 [nM] mean",1580 nM
same,EC50,"[1]; DD2, cell line S2 - bulk population, read-out: EC50 [nM] mean",1340 nM
same,EC50,"[1]; DD2, cell line S3 - Clone B3, read-out: EC50 [nM] mean",2810 nM
same,EC50,"[1]; DD2, cell line S3 - Clone B7, read-out: EC50 [nM] mean",2450 nM
same,EC50,"[1]; DD2, cell line S3 - bulk population, read-out: EC50 [nM] mean",2000 nM
same,EC50,"[1]; DD2, read-out: EC50 [nM] mean, cell line S3 - Clone B2",5110 nM
same,"parasite growth, dose-response point","[1]; S1 - Clone A8, Log[NCP26] (M) -6.505",1
same,"parasite growth, dose-response point","[1]; S1 - Clone A8, Log[NCP26] (M) -6.806",9
same,"parasite growth, dose-response point","[1]; S1 - Clone A8, Log[NCP26] (M) -7.107",33 and 29
same,"parasite growth, dose-response point","[1]; S1 - Clone A8, Log[NCP26] (M) -7.408",93 and 97 and 101
same,"parasite growth, dose-response point","[1]; S2 - Clone A3, Log[NCP26] (M) -6.505",93 and 92 and 86
same,"parasite growth, dose-response point","[1]; S2 - Clone A3, Log[NCP26] (M) -6.806",96 and 98 and 93
same,"parasite growth, dose-response point","[1]; S2 - Clone A3, Log[NCP26] (M) -7.107",100 and 98
same,"parasite growth, dose-response point","[1]; S2 - Clone A3, Log[NCP26] (M) -7.408",99 and 101 and 100
same,"parasite growth, dose-response point","[1]; S2 - Clone B9, Log[NCP26] (M) -6.505",98 and 112 and 97
same,"parasite growth, dose-response point","[1]; S2 - Clone B9, Log[NCP26] (M) -6.806",107 and 93 and 96
same,"parasite growth, dose-response point","[1]; S2 - Clone B9, Log[NCP26] (M) -7.107",96 and 110 and 113
same,"parasite growth, dose-response point","[1]; S2 - Clone B9, Log[NCP26] (M) -7.408",107 and 94 and 102
same,"parasite growth, dose-response point","[1]; S2 - Clone B9, Log[NCP26] (M) -7.709",99 and 93 and 94
same,"parasite growth, dose-response point","[1]; S2 - Clone C5, Log[NCP26] (M) -6.505",95 and 102
same,"parasite growth, dose-response point","[1]; S2 - Clone C5, Log[NCP26] (M) -6.806",98 and 100 and 101
same,"parasite growth, dose-response point","[1]; S2 - Clone C5, Log[NCP26] (M) -7.107",101 and 97
same,"parasite growth, dose-response point","[1]; S2 - Clone C5, Log[NCP26] (M) -7.408",96 and 101 and 100
same,"parasite growth, dose-response point","[1]; S2 - Clone C5, Log[NCP26] (M) -7.709",102 and 105
same,"parasite growth, dose-response point","[1]; S3 - Clone A6, Log[NCP26] (M) -6.505",108 and 103 and 90
same,"parasite growth, dose-response point","[1]; S3 - Clone A6, Log[NCP26] (M) -6.806",101 and 97
same,"parasite growth, dose-response point","[1]; S3 - Clone A6, Log[NCP26] (M) -7.107",95 and 100 and 96
same,"parasite growth, dose-response point","[1]; S3 - Clone A6, Log[NCP26] (M) -7.408",112 and 100 and 105
same,"parasite growth, dose-response point","[1]; S3 - Clone A8, Log[NCP26] (M) -6.505",94 and 102 and 97
same,"parasite growth, dose-response point","[1]; S3 - Clone A8, Log[NCP26] (M) -6.806",101 and 99 and 104
same,"parasite growth, dose-response point","[1]; S3 - Clone A8, Log[NCP26] (M) -7.107",100 and 103 and 99
same,"parasite growth, dose-response point","[1]; S3 - Clone A8, Log[NCP26] (M) -7.408",104 (2×) and 98
same,"parasite growth, dose-response point","[1]; S3 - Clone B2, Log[NCP26] (M) -6.505",76 and 92 and 86
same,"parasite growth, dose-response point","[1]; S3 - Clone B2, Log[NCP26] (M) -6.806",88 and 90 and 99
same,"parasite growth, dose-response point","[1]; S3 - Clone B2, Log[NCP26] (M) -7.107",113 and 109 and 107
same,"parasite growth, dose-response point","[1]; S3 - Clone B2, Log[NCP26] (M) -7.408",108 and 109
same,"parasite growth, dose-response point","[1]; S3 - Clone B3, Log[NCP26] (M) -6.505",92 and 95
same,"parasite growth, dose-response point","[1]; S3 - Clone B3, Log[NCP26] (M) -6.806",92 and 96 and 98
same,"parasite growth, dose-response point","[1]; S3 - Clone B3, Log[NCP26] (M) -7.107",99 and 94
same,"parasite growth, dose-response point","[1]; S3 - Clone B3, Log[NCP26] (M) -7.408",105 and 101 and 104
same,"parasite growth, dose-response point","[1]; S3 - Clone B7, Log[NCP26] (M) -6.505",101 and 95 and 100
same,"parasite growth, dose-response point","[1]; S3 - Clone B7, Log[NCP26] (M) -6.806",99 and 96 and 101
same,"parasite growth, dose-response point","[1]; S3 - Clone B7, Log[NCP26] (M) -7.107",98 and 94 and 99
same,"parasite growth, dose-response point","[1]; S3 - Clone B7, Log[NCP26] (M) -7.408",105 and 98
same,"binding mode with respect to substrates (ATP, proline)",PfcProRS,proline-uncompetitive
same,fold increased affinity in the presence of proline,PfcProRS,52 fold
same,"dose-response signal (normalized), SI Fig 8",PfcProRS; Log[inhibitor] (M) -6.301,-4.45E-02 and 1.59E-01 and 5.71E-02 and 4.55E-02 and 8.14E-02 and 4.48E-02
same,"dose-response signal (normalized), SI Fig 8",PfcProRS; Log[inhibitor] (M) -6.602,1.17E-01 and 1.10E-01 and 1.62E-01 and 1.06E-01 and 1.14E-01 and 3.45E-02
same,"dose-response signal (normalized), SI Fig 8",PfcProRS; Log[inhibitor] (M) -6.904,-7.84E-03 and 4.23E-02 and 1.85E-01 and 6.33E-02 and -1.22E-02 and 1.04E-01
same,"dose-response signal (normalized), SI Fig 8",PfcProRS; Log[inhibitor] (M) -7.205,1.30E-01 and 1.69E-01 and 1.26E-02 and 6.32E-02 and 1.43E-01 and 5.72E-02
same,"dose-response signal (normalized), SI Fig 8",PfcProRS; Log[inhibitor] (M) -7.506,2.32E-01 and 1.89E-01 and 1.64E-01 and 2.04E-01 and 7.73E-02 and 1.02E-01
same,"dose-response signal (normalized), SI Fig 8",PfcProRS; Log[inhibitor] (M) -7.796,3.08E-01 and 3.64E-01 and 4.11E-01 and 4.02E-01 and 3.25E-01 and 3.10E-01
same,"dose-response signal (normalized), SI Fig 8",PfcProRS; Log[inhibitor] (M) -8.097,5.23E-01 and 5.87E-01 and 9.12E-01 and 7.05E-01 and 5.54E-01 and 7.03E-01
same,"dose-response signal (normalized), SI Fig 8",PfcProRS; Log[inhibitor] (M) -8.407,7.84E-01 and 7.32E-01 and 7.98E-01 and 9.93E-01 and 8.87E-01 and 8.26E-01
same,"dose-response signal (normalized), SI Fig 8",PfcProRS; Log[inhibitor] (M) -8.708,9.57E-01 and 1.08E+00 and 9.98E-01 and 8.58E-01 and 8.40E-01 and 9.70E-01
same,"dose-response signal (normalized), SI Fig 8",PfcProRS; Log[inhibitor] (M) -9.018,9.48E-01 and 9.31E-01 and 1.13E+00 and 1.15E+00 and 1.02E+00 and 9.66E-01
same,"dose-response signal (normalized), SI Fig 8",PfcProRS; Log[inhibitor] (M) -9.319,9.22E-01 and 1.00E+00 and 1.07E+00 and 1.03E+00 and 1.09E+00 and 9.57E-01
same,"dose-response signal (normalized), SI Fig 8",PfcProRS; Log[inhibitor] (M) -9.620,1.10E+00 and 1.04E+00 (2×) and 9.95E-01 and 1.13E+00 and 9.21E-01
same,"dose-response signal (normalized), SI Fig 8",PfcProRS; Log[inhibitor] (M) -9.921,9.45E-01 and 1.02E+00 and 1.05E+00 and 9.10E-01 and 9.27E-01 and 9.41E-01
same,"dose-response signal (normalized), SI Fig 8",PfcProRS; Log[inhibitor] (M) -10.097,1.10E+00 and 1.01E+00 and 1.17E+00 and 9.78E-01 and 8.32E-01 and 1.04E+00
same,"dose-response signal (normalized), SI Fig 8",PfcProRS; Log[inhibitor] (M) -10.585,1.14E+00 and 1.18E+00 and 8.42E-01 and 8.75E-01 and 9.70E-01 and 1.02E+00
same,PfcProRS -- best Kd,"PfcProRS; SI Fig 16a, values on -log scale",8.599
